{"source": "patent US20210030843A1", "about": "“COMPOSITION AND METHOD FOR REDUCING CHEMOTHERAPY-INDUCED NEUTROPENIA VIA THE ADMINISTRATION OF PLINABULIN AND A G-CSF AGENT” (BEYONDSPRING PHARMACEUTICALS, INC., priority 2018, published 2021)", "key": {"[1]": {"system": "patients (docetaxel-induced neutropenia)", "conditions": "for proportion of patients with Grade 4 neutropenia: Cycle 1, docetaxel treatment alone vs addition of plinabulin to docetaxel, ANC <0.5×10^9/L, p<0.0003"}, "[2]": {"system": "patients with solid tumors receiving docetaxel myelosuppressive chemotherapy", "assay": "Example 1: randomized, double blind study, plinabulin versus pegfilgrastim with docetaxel", "format": "in vivo, human", "conditions": "for change of neutrophil count through time (FIG. 1): after docetaxel 75 mg/m^2, pegfilgrastim 6 mg, plinabulin 5, 10, 20 mg/m^2", "description": "A randomized, double blind study to evaluate duration of severe neutropenia with plinabulin versus pegfilgrastim in patients with solid tumors receiving docetaxel myelosuppressive chemotherapy was performed. Patients were randomly assigned to the following arms (with the respective sample sizes): Arm 1: Docetaxel (75 mg/m^2)+Pegfilgrastim (6 mg) (n=14); Arm 2: Docetaxel (75 mg/m^2)+Plinabulin (20 mg/m^2) (n=14); Arm 3: Docetaxel (75 mg/m^2)+Plinabulin (10 mg/m^2) (n=14); and Arm 4: Docetaxel (75 mg/m^2)+Plinabulin (5 mg/m^2) (n=13)."}, "[3]": {"system": "Patients with solid tumors", "assay": "Plinabulin monotherapy in patients with solid tumors, laboratory parameters", "format": "in vivo, human", "conditions": "in the absence of chemotherapy"}, "patients [4]": {"system": "patients", "conditions": "Plinabulin"}, "[5]": {"system": "neutropenia caused by chemotherapies", "assay": "Animal model studies of chemotherapy-caused neutropenia", "format": "in vivo", "conditions": "docetaxel, cisplatin, adriamycin, cyclosphosphamide, topotecan, gemcitabine"}, "[6]": {"system": "NSCLC patients (pts) with a measurable lesion", "assay": "Phase 2 trial, addition of Plinabulin to Docetaxel in NSCLC patients", "conditions": "human, in vivo"}, "[7]": {"system": "Patients with first line breast cancer receiving TAC", "assay": "Example 2: Phase 2 open label study, plinabulin and pegfilgrastim after TAC", "format": "in vivo, human", "conditions": "pegfilgrastim 6 mg", "description": "A multicenter, randomized study, involving G-CSF and plinabulin was performed. The Phase 2 portion was randomized and open label. The decision to complete the Phase 2 portion of the study as open label was made to reduce the complexities of study conduct and to allow for the assessment, via QoL, of same-day plinabulin dosing (i.e on the day of chemotherapy dosing) versus next day dosing with G-CSF. Patients with first line breast cancer were enrolled in the study.\nPatients received up to 4 cycles of a docetaxel/doxorubicin/cyclophosphamide based chemotherapy regimen, every 3 weeks (21 days). On Day 1 of Cycle 1, all patients receive docetaxel (75 mg/m^2), doxorubicin (50 mg/m^2), and cyclophosphamide (500 mg/m^2)-Taxotere, Adriamycin and cyclophosphamide (TAC).\nDuring Cycles 2 to 4, the doxorubicin component may be omitted at the discretion of the investigator, i.e., TC can be administered instead of TAC.\nThe eligibility of all patients was determined during a 28-day screening period.\nPhase 2 (Open Label): In Phase 2, patients were randomly assigned to one of the treatment arms, with the arm designation and planned intervention as shown in Table 2.\nPatients have been randomized to receive TAC (or TC for Cycles 2 to 4)+pegfilgrastim or a combination of plinabulin and pegfilgrastim in each of Arms 1, 2, 3, and 4.\nIn Phase 2 (Open Label), Cycles 1 to 4 consisted of TAC (or TC for Cycles 2 to 4) administered IV on Day 1, every 21 days. Patients in Arms 2 and 3 received a single dose of plinabulin over 30 minutes (±5 minutes), 30 minutes after the end of the TAC (or TC for Cycles 2 to 4) infusion on Day 1. On Day 2 of each cycle (≥24 hours after completing chemotherapy) patients in […] received a single dose of pegfilgrastim (6.0 mg) (subcutaneous injection) in an open label treatment.\nDocetaxel: Docetaxel was administered at a dose of 75 mg/m2. Administration was carried out with a 1-hour IV infusion per institutional protocol at the dose prescribed by this clinical study protocol (75 mg/m2). Dexamethasone (16 mg per day administered as 8 mg twice daily, or as per institution standard) was given on the day before, the day of (Day 1), and the day following docetaxel infusion (Day 2).\nDoxorubicin: Doxorubicin was administered at a dose of 50 mg/m2. Doxorubicin is potentially cardiotoxic. Risk for doxorubicin cardiotoxicity increases with the cumulative lifetime dose of doxorubicin. At the doxorubicin dose and schedule in this study, patients received a cumulative doxorubicin dose of […] of body surface area, below the threshold for symptomatic cardiac dysfunction. Patients were monitored, per institutional standard, for doxorubicin cardiotoxicity.\nCyclophosphamide: Cyclophosphamide was administered at a dose of 500 mg/m^2.\nTAC Regimen: All patients received 3 week cycles of TAC chemotherapy. In each cycle, doxorubicin (50 mg/m2) given as a 15-minute IV infusion was administered first, followed immediately by cyclophosphamide (500 mg/m2) given as a 30-minute IV infusion, and then by docetaxel (75 mg/m2) administered as 1-hour IV infusion (the infusion times stated are approximate)."}, "patients [8]": {"system": "patients", "conditions": "most common adverse reactions; cited from earlier work"}, "patients [9]": {"system": "patients", "conditions": "G-CSF, cited from earlier work"}, "[10]": {"conditions": "Table 4, alone or with plinabulin 20 mg/m^2"}, "[11]": {"conditions": "cycle 1 after TAC, breast cancer, alone or with plinabulin 20 mg/m^2"}}, "note": "Several values for one entry are separate records, joined by “and”; a condition that tells them apart may be missing. Identical values can stand only once. Like-named read-outs stand apart in the source and are kept apart here."}
{"molecule": "CC(=O)O[C@@]12CO[C@@H]1C[C@H](O)[C@@]1(C)C(=O)[C@H](O)C3=C(C)[C@@H](OC(=O)[C@H](O)[C@@H](NC(=O)OC(C)(C)C)c4ccccc4)C[C@@](O)([C@@H](OC(=O)c4ccccc4)[C@H]21)C3(C)C", "note": "[docetaxel, reference compound]", "values": [{"measurement": "proportion of patients with Grade 4 neutropenia", "setting": "[1]", "value": 33.3, "unit": "%"}]}
{"molecule": "CC(C)(C)c1[nH]cnc1/C=c1\\[nH]c(=O)/c(=C/c2ccccc2)[nH]c1=O", "note": "[Plinabulin, (3Z,6Z)-3-Benzylidene-6-{[5-(2-methyl-2-propanyl)-1H-imidazol-4-yl]methylene}-2,5-piperazinedione]", "values": [{"measurement": "change of neutrophil count through time (FIG. 1)", "setting": "[2]", "value": "started to rise again on day 10"}, {"measurement": "treating neutropenia induced by chemotherapeutic agent", "setting": "[2]; docetaxel 75 mg/m^2", "value": "effective"}, {"measurement": "overshot of the ANC during recovery", "setting": "[2]; in vivo", "value": "prevented"}, {"measurement": "changes in hematology or chemistry laboratory parameters", "setting": "[3]", "value": "did not experience any clinically significant deleterious changes"}, {"measurement": "Grade 3 transient hypertension, patients", "setting": "[1]; 20 mg/m^2 plinabulin", "value": 5, "unit": "%"}, {"measurement": "Grade 3 transient hypertension, patients", "setting": "[1]; 30 mg/m^2 plinabulin", "value": 20, "unit": "%"}, {"measurement": "proportion of patients with Grade 4 neutropenia", "setting": "[1]", "value": 4.6, "unit": "%"}, {"measurement": "clinical sequelae associated with docetaxel-induced neutropenia (sepsis, infections, hospitalizations, docetaxel dose reductions, G-CSF use)", "setting": "[1]; human, in vivo", "value": "reduced"}, {"measurement": "bone pain, patients", "setting": "[1]; patients receiving plinabulin", "value": 4, "unit": "%"}, {"measurement": "Bone Pain (% of patients)", "setting": "patients [4]", "value": "<4", "unit": "%"}, {"measurement": "Hospitalization (% of patients)", "setting": "patients [4]", "value": 6, "unit": "%"}, {"measurement": "prevention of neutropenia caused by chemotherapies", "setting": "[5]", "value": "prevent neutropenia"}, {"measurement": "Immune-Related AEs (IR-AEs)", "setting": "[6]", "value": "without increasing"}]}
{"molecule": "pegfilgrastim: colony-stimulating factor that acts on hematopoietic cells by binding to specific cell surface receptors (protein, chains of the INN, looked up, PEG) TPLGPASSLPQSFLLKCLEQVRKIQGDGAALQEKLCATYKLCHPEELVLLGHSLGIPWAPLSSCPSQALQLAGCLSQLHSGLFLYQGLLQALEGISPELGPTLDTLQLDVADFATTIWQQMEELGMAPALQPTQGAMPAFASAFQRRAGGVLVASHLQSFLEVSYRVLRHLAQP", "values": [{"measurement": "change of neutrophil count through time (FIG. 1)", "setting": "[2]", "value": "began to drop after 10 days"}, {"measurement": "Anti-cancer", "setting": "[7]; [10]", "value": "No"}, {"measurement": "DSN (grade 3/4)", "setting": "[7]; [10]", "value": "Well over 1 day"}, {"measurement": "% neutropenia (grade 4)", "setting": "[7]; [11]", "value": "57% and > 50%"}, {"measurement": "DSN (grade 3/4)", "setting": "[7]; [11]", "value": "1.4 ± 1.0"}, {"measurement": "patients with NLR greater than 5 (FIG. 6)", "setting": "[7]; [11]", "value": 76, "unit": "%"}, {"measurement": "ANC nadir of median ANC (FIG. 2)", "setting": "[7]; first 10 days of cycle 1, alone or with plinabulin 20 mg/m2", "value": "within the grade 3/4 neutropenia range"}, {"measurement": "Median ANC Nadir", "setting": "[7]; alone or with plinabulin 20 mg/m^2", "value": "0.47 10^9 cells/L"}, {"measurement": "bone pain, patients", "setting": "patients [8]", "value": 31, "unit": "%"}, {"measurement": "pain in an extremity, patients", "setting": "patients [8]", "value": 9, "unit": "%"}]}
{"molecule": "G-CSF: Granulocyte-colony stimulating factor: compounds or factors that stimulate proliferation, differentiation, commitment and end cell functional activation of granulocytes (protein, UniProt P09919 31-207, looked up) Granulocyte …: TPLGPASSLPQSFLLKCLEQVRKIQGDGAALQEKLVSECATYKLCHPEELVLLGHSLGIPWAPLSSCPSQALQLAGCLSQLHSGLFLYQGLLQALEGISPELGPTLDTLQLDVADFATTIWQQMEELGMAPALQPTQGAMPAFASAFQRRAGGVLVASHLQSFLEVSYRVLRHLAQP", "values": [{"measurement": "Hospitalization (% of patients)", "setting": "patients [9]", "value": 20, "unit": "%"}, {"measurement": "Bone Pain (% of patients)", "setting": "patients [9]; footnote mark 1", "value": ">20", "unit": "%^1"}]}
